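48-hour exposure; five concentrations; linearly interpolated endpoints. Abbreviation: GI50, concentration required for 50% inhibition of growth. Definition used: TGI = concentration required for complete inhibition of growth.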 Peptide text beside a SMILES is read from it. * marks the point of attachment. X26 = Clc1c(Cl)c(Cl)c(O*)c(Cl)c1Cl; Boc = CC(C)(C)OC(=O)*; OBn = c1ccc(CO*)cc1; Bn = c1ccc(C*)cc1
Columns and labels:
Assay in all cases: DTP human tumour cell line panel, 48 h
HS 578T breast = tested on: HS 578T breast
SNB-19 CNS = tested on: SNB-19 CNS
UACC-257 melanoma = tested on: UACC-257 melanoma
RPMI-8226 leukemia = tested on: RPMI-8226 leukemia
BT-549 breast = tested on: BT-549 breast
SR leukemia = tested on: SR leukemia
MOLT-4 leukemia = tested on: MOLT-4 leukemia
HCC-2998 colon = tested on: HCC-2998 colon
A549 NSCLC = tested on: A549 NSCLC
HOP-92 NSCLC = tested on: HOP-92 NSCLC

Row | Compound | TGI (HS 578T breast) [µM] | TGI (SNB-19 CNS) [µM] | TGI (UACC-257 melanoma) [µM] | TGI (RPMI-8226 leukemia) [µM] | TGI (BT-549 breast) [µM] | TGI (SR leukemia) [µM] | TGI (MOLT-4 leukemia) [µM] | TGI (HCC-2998 colon) [µM] | TGI (A549 NSCLC) [µM] | TGI (HOP-92 NSCLC) [µM] | GI50 (HCC-2998 colon) [µM] | GI50 (HOP-92 NSCLC) [µM] | GI50 (RPMI-8226 leukemia) [µM] | GI50 (BT-549 breast) [µM] | GI50 (SR leukemia) [µM]
1 | N#Cc1nc(C2CCC(=O)O2)oc1N (stereo not given) | > 100 | > 100 | > 100 | > 100 | > 100 | > 100 | > 100 |  |  |  |  |  |  |  | 
2 | CC(O)CNC1=CC(=O)C(=O)c2ccccc21 (stereo not given) | 61.8 | 32 | 30.3 | 48 |  | > 100 | 59.9 | 26.5 | 39.5 | 53.3 |  |  |  |  | 
3 | CC(C)CC(NC(=O)C(CCC(=O)OCc1ccccc1)NC(=O)OC(C)(C)C)C(=O)NC(COCc1ccccc1)C(=O)NC(Cc1ccccc1)C(=O)Oc1c(Cl)c(Cl)c(Cl)c(Cl)c1Cl (stereo not given) (Boc-E(OBn)LS(Bn)F-X26; configuration not given here) | 65.9 | 83 | 66.3 | 76.6 |  | 97.9 | 54.1 |  | 96 | 43.8 |  |  |  |  | 
4 | Oc1c(OCc2nnc(CCCCCCCCc3nnc(COc4ccc5ccccc5c4O)o3)o2)ccc2ccccc12 |  | > 100 | > 100 | > 100 | > 100 |  | > 100 | > 100 | > 100 | > 100 |  |  |  |  | 
5 | Cn1c2c(c3ccccc31)CCN1C(=O)C34CCCC3CC21S4 (stereo not given) | > 100 | > 100 | > 100 | > 100 | > 100 | > 100 | > 100 |  | > 100 | > 100 |  |  |  |  | 
6 | CCN1CCN(Cc2ccc(NC(=O)Nc3ccc(-n4ccc5c(NC(=O)c6ccccc6)nccc54)cc3)cc2C(F)(F)F)CC1 |  |  |  | > 100 | 2.77 | > 100 |  | 2.54 |  | 59.6 | 1.23 | 13.3 | 0.942 | 1.43 | 0.159
7 | Cc1ccc2c(c1C)CC1(Cc3c(C)ccc(C)c3C1=O)C2=O (stereo not given) | > 100 | > 100 | > 100 | > 100 | > 100 |  | > 100 | > 100 | > 100 | > 100 |  |  |  |  | 
8 | Cc1nc(SCC(N)=O)c2sc(=S)n(-c3ccccc3)c2n1 | > 10 | > 10 | > 10 | > 10 |  | > 10 | > 10 | > 10 | > 10 | > 10 |  |  |  |  | 
9 | O=P(OCc1ccccc1)(OCc1ccccc1)C(O)/C=C/c1ccccc1 (stereo not given) | 45.1 | 71.3 | 38.6 | 82.8 | 71.2 | 50.7 | 48.1 |  | > 100 | 57.2 |  |  |  |  | 
10 | CN(C)CCCNc1cc(O)c2c(c1O)C(=O)c1ccccc1C2=O | 50.2 | 21.8 | 26.6 | 29.8 | 34.2 | 15.9 |  |  | 23.9 | 29.6 |  |  |  |  | 
11 | O=C1NC(=S)NC(=O)C1C(c1ccc(Cl)cc1)C1C(=O)NC(=S)NC1=O |  | > 100 | > 100 | > 100 | > 100 |  | > 100 |  | > 100 | > 100 |  |  |  |  | 
12 | CCN(CC)c1ccc(NC(=S)NN(C)C)cc1 | > 10 | > 10 | > 10 | > 10 |  | > 10 | > 10 | > 10 | > 10 | > 10 |  |  |  |  | 
13 | O=[N+]([O-])/C(Cl)=C(/C(Cl)=C(Cl)Cl)N1CCCCC1 | 64.4 | 54.1 |  | 18.2 |  | 7.5 | 11.7 | 33.4 | 28.5 | 30.2 |  |  |  |  | 
14 | S=c1[nH]nc(Cn2c3ccc(Br)cc3c3nc4ccccc4nc32)n1C1CCCCC1 |  | > 96.7 | > 100 | 59.4 | > 83 | 60.6 | 28.6 | 61 | > 64.1 | 19.6 |  |  |  |  | 
15 | COC(=O)C1=C(C)NC(C)=C(C(=O)OC)C1c1cccc(N=O)c1 |  | > 100 | 30.2 | > 100 | 31 | > 100 | > 100 | 45.9 | > 100 | 20.1 |  |  |  |  | 
16 | COc1ccc(OC)c(NC(=O)C(=O)C(C(=O)c2ccccc2F)C2OC(=O)c3ccccc32)c1 (stereo not given) |  | > 100 | > 100 | > 100 |  | 89.1 | > 100 | > 100 | > 100 | > 100 |  |  |  |  | 
17 | CC(C)=CCC12Cc3ccc(O)cc3C(C(C)CN1)C2C (stereo not given) | > 100 | > 100 | > 100 | > 100 |  | > 100 | > 100 | 48.2 | > 100 | > 100 |  |  |  |  | 
18 | COC(=O)C1=C(C(=O)OC)SC(=C2SC3=C(SC(=C4SCCS4)S3)S2)S1 | > 100 | > 100 | > 100 | > 100 | > 100 | > 100 | > 100 |  | > 100 | > 100 |  |  |  |  | 
19 | Cc1cc(OCc2nnc3sc(NC(=O)c4ccccc4)nn23)ccc1Cl | 95.6 | > 100 | > 100 | 69.2 | > 100 |  | > 100 | 90.2 | > 100 | 34.8 |  |  |  |  | 
20 | CC(=O)OC1CC2(O)C(CCC3(C)C(c4ccc(=O)oc4)CCC32O)C2(C)C1=CC(O)C1OC12 (stereo not given) |  | 0.461 | 0.333 | 0.4 |  |  | 0.0366 | 0.436 | 0.0569 | 0.157 |  |  |  |  | 
21 | COc1ccc(OC/C(N=Cc2ccncc2)=N/NC(=O)c2ccncc2)cc1 | > 100 | > 100 | > 100 | > 100 | > 100 |  | > 100 | > 100 | > 100 | 96.4 |  |  |  |  | 
22 | C[C@H](c1ccccc1)N1C(=O)[C@@H](OCc2ccccc2)[C@H]1[C@H](COC(=O)COCc1ccccc1)OCc1ccccc1 | > 100 | > 100 |  | > 100 |  | > 100 | > 100 |  | > 100 | > 100 |  |  |  |  | 
23 | Clc1cc(C(c2cc(Cl)sc2Cl)c2cc(Cl)sc2Cl)c(Cl)s1 | > 100 | > 100 | > 100 | > 100 |  | > 100 | > 100 | > 100 | > 100 | > 100 |  |  |  |  | 

From PubChem BioAssay (NCI)
